# Results taken from ChEMBL document CHEMBL1147209, “Relationship between quantum-chemical descriptors of proton dissociation and experimental acidity constants of various hydroxylated coumarins. Identification of the biologically active species for xanthine oxidase inhibition” (Eur J Med Chem, 2007).
# Target: Xanthine dehydrogenase/oxidase (Homo sapiens, UniProt P47989)
# Experiment: Inhibition of xanthine oxidase; call rule not given here
# Xanthine dehydrogenase/oxidase, sequence (P47989 whole entry): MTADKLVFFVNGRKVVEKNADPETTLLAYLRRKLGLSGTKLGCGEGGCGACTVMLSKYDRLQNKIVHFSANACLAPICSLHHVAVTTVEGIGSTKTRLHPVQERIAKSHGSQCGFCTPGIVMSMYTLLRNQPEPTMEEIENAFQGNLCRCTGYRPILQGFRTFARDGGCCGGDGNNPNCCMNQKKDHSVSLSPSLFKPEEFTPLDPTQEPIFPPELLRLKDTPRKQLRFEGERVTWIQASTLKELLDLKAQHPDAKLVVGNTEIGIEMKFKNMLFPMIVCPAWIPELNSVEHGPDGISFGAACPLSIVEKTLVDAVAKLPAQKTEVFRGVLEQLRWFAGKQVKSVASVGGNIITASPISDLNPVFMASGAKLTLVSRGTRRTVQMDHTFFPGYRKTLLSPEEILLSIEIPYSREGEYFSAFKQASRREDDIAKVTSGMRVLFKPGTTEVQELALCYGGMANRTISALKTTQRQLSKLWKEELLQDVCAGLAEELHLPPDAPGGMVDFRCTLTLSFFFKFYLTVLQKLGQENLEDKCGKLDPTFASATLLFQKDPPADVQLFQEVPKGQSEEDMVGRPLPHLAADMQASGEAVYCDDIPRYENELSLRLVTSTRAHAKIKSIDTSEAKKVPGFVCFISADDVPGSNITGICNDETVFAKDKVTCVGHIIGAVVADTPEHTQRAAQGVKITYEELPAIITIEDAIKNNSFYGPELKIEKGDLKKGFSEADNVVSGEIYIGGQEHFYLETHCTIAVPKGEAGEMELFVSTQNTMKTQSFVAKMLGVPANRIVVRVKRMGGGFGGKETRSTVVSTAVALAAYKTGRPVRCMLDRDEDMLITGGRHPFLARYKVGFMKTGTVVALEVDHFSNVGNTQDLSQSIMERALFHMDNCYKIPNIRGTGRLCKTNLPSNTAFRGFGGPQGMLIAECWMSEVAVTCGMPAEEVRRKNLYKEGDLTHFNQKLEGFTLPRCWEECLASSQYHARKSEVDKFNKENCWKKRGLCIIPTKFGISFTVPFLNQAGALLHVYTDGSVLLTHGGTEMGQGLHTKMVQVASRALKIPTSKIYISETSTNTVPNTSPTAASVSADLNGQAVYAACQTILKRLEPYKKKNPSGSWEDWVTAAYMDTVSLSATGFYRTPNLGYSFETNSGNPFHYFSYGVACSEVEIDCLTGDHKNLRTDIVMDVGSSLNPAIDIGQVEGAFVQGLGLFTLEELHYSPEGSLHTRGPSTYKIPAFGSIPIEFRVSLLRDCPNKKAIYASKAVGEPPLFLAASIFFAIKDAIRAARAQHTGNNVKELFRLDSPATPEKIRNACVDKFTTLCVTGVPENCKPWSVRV
IC50,Activity,SMILES
138 µM,,COc1cc2oc(=O)ccc2cc1O [ISOSCOPOLETIN]
236 µM,,O=c1ccc2ccc(O)cc2o1 [UMBELLIFERONE]
131 µM,,O=c1oc2ccccc2cc1O [3-HYDROXYCOUMARIN]
8.2 µM,,O=c1ccc2cc(O)c(O)cc2o1 [ESCULETIN]
,Not Active,COc1cc2ccc(=O)oc2cc1O [SCOPOLETIN]
246 µM,,Cc1cc(=O)oc2cc(O)c(O)cc12 [4-METHYLESCULETIN]
390 µM,,O=c1ccc2ccc(O)c(O)c2o1 [DAPHNETIN]

SMILES,IC50,Activity
O=c1cc(O)c2ccccc2o1 [4-HYDROXYCOUMARINS],195 µM,
